Source: the NIST ThermoML archive (doi:10.1021/acs.jced.8b01135)

Experiment: xn = mol fraction of the nth substance listed
Settings: 102 kPa, Liquid; for mass density: Vibrating tube method; for speed of sound: Frequency=3 MHz, Single path-length method; for viscosity: Concentric cylinders viscometry

CCCCCCCCCCCCC1CCCCC1 [dodecylcyclohexane] + CCCCCCCCCCCC
Settings | mass density, 293.15 K [kg/m3] | mass density, 298.15 K [kg/m3] | mass density, 303.15 K [kg/m3] | speed of sound, 298.15 K [m/s] | speed of sound, 303.15 K [m/s] | viscosity, 303.15 K [mPa·s]
x1 = 0.1005 | – | 755.01 | 751.42 | 1294.4 | 1275.3 | 1.53
x1 = 0.2001 | – | 764.14 | 760.58 | 1309.5 | 1290.5 | 1.75
x1 = 0.298 | – | 772.48 | 768.97 | 1323.5 | 1304.6 | 2.05
x1 = 0.4031 | – | 780.84 | 777.36 | 1337.6 | 1318.8 | 2.43
x1 = 0.5001 | – | 788.04 | 784.59 | 1350 | 1331.3 | 2.82
x1 = 0.6005 | – | 795.04 | – | 1362.1 | 1343.5 | 3.28
x1 = 0.7003 | – | 801.61 | – | 1374 | 1355.4 | 3.79
x1 = 0.7997 | 811.11 | 807.73 | – | 1384.7 | 1366.3 | 4.38
x1 = 0.8994 | 816.87 | 813.51 | – | 1395.1 | 1376.6 | 5.05
x1 = 1 | 822.36 | 819.02 | – | 1404.8 | 1386.3 | 5.81
